Measured values reported in patent publication US20240409538A1, “SUBSTITUTED TRIAZOLOHETEROARYL COMPOUNDS AS USP1 INHIBITORS AND THE USE THEREOF” (IMPACT THERAPEUTICS (SHANGHAI), INC., priority 2021, published 2024).

What follows are molecules tested on BRCA mutant human breast cancer MDA-MB-436 cell line (assay: Growth inhibition of MDA-MB-436 cells, CCK-8 method). Conditions: MDA-MB-436, 168 h, 7 days incubation, read-out: IC50 (nM), inhibition of proliferation of MDA-MB-436 cells, CCK-8 method.
Assay type: cell-based
Method: The cells were cultured in complete medium (DMEM medium+10% FBS+Insulin+glutathione). When the confluence reached about 80%, cells were digested and gently dispensed from the bottom of the dish with a 1 mL pipette. Cell suspension was collected and centrifuged at 500 rpm for 3 min. The supernatant was discarded, and the cell pellet were re-suspended in complete medium. The cells were seeded into a culture dish at an appropriate proportion, and then cultured in a 5% CO2 incubator at 37° C. The assay was carried out when the cells were in optimum condition and the confluence was reached 80%. Cells in the logarithmic growth phase were taken to centrifugate, and the culture supernatant was removed. The cells were resuspended in refresh complete medium and counted. The resuspended cells were seeded at 3000/well in a 96-well plate and incubated at 37° C., 5% CO2 incubator overnight. The compound was prepared as below: 1000× dilution tested compound solution to 40× test compound solution by adding 5 μL 1000× compound solution to 120 μL Medium (25-fold dilution). The solution was mixed by oscillation, 0.1% DMSO was used as the control.
The next day, the 96-well plate inoculated with cells was taken out from the incubator, and the culture supernatant was removed. Then fresh medium of 195 uL/well and 5 μL/well of 40× test compound solution as mentioned above were added into the 96 well plate, respectively. Finally, the plate was incubated for 7 days in a 37° C. 5% CO2 incubator. The medium containing compound was changed on the fourth day.
CCK Method: After 7 days, 20 μL of CCK-8 was added to each well and shaken gently, then was cultured for 4 hours. The plate was shaken for 5 min after incubation, the absorbance values of 450 nm or 650 nm wavelengths were recorded respectively (OD=absorbance value of 450 nm−absorbance value of 650 nm) by using the multifunction readout instrument.
Data were analyzed by software GraphPad Prism 6.0. The inhibitory activity of compounds on cell proliferation was plotted using cell survival rate against the compound concentration as coordinates. Cell survival rate %=(ODcompound−ODbackground)/(ODDMSO−ODbackground)×100. The IC50 value was fitted by the s-shaped dose response curve equation: Y=100/(1+10^(log C−log IC50)), and C was the compound concentration.
Table 3 summarizes the inhibitory effect data (IC50) of the compounds on the proliferation of human breast cancer cells MDA-MB-436 determined by CCK-8 method.

| IC50 [nM] | Structure (SMILES) |
| --- | --- |
| 1170 | CC(C)c1ccccc1-c1nc2c(Cc3ccc(-c4nc(C(F)(F)F)cn4C)cc3)ccnn2n1 [Example 9, 2-(2-isopropylphenyl)-8-(4-(1-methyl-4-(trifluoromethyl)-1H-imidazol-2-yl)benzyl)-[1,2,4]triazolo[1,5-b]pyridazine] |
| 226 | CC(C)c1ccccc1-c1nc2cccc(Cc3ccc(-c4nc(C(F)(F)F)cn4C)cc3)n2n1 [Example 10, 2-(2-isopropylphenyl)-5-(4-(1-methyl-4-(trifluoromethyl)-1H-imidazol-2-yl)benzyl)-[1,2,4]triazolo[1,5-a]pyridine] |
| 10.3 | Cc1cnn(C(C)C)c1-c1nc2cccc(Cc3ccc(-c4nc(C(F)(F)F)cn4C)cc3)n2n1 [Example 15, 2-(1-isopropyl-4-methyl-1H-pyrazol-5-yl)-5-(4-(1-methyl-4-(trifluoromethyl)-1H-imidazol-2-yl)benzyl)-[1,2,4]triazolo[1,5-a]pyridine] |

Each molecule was assayed against USP1/UAF1 (Homo sapiens (Human), UniProt O94782) (assay: USP1/UAF1 activity, ubiquitin-rhodamine110-glycine (Ub-Rho) assay). Conditions: 0.1 nM USP1/UAF1, 100 nM Ub-Rho, 120 minutes; read-out: IC50 (nM), inhibitory effects on USP1/UAF1 activity.
Assay type: biochemical
Method: USP1/UAF1 activity was determined by using ubiquitin-rhodamine110-glycine (Ub-Rho; Boston Biochem) assay. Enzymatic reactions were conducted in an assay buffer (50 mM Tris-HCl, pH 7.8, 0.5 mM EDTA, 100 mM NaCl, 1 mM DTT, 0.01 BSA, and 0.01% Tween-20) that contained 0.1 nM USP1/UAF1. Each individual compound was tested at ten concentrations in the range of 0.0005 to 10 μM. The plates were incubated for 15 min to attain equilibrium, and then the enzymatic reaction was initiated by dispensing 10 μL of Ub-Rho solution (100 nM final concentration). After treating 120 minutes with Ub-Rho solution, the rhodamine fluorescence was acquired using a 480 nm excitation/540 nm emission filter set by using Envision instrument. The inhibition rate of the compound to USP1/UAF1 enzyme activity was calculated according to the following formula.
IC50 value is obtained by fitting the s-shaped dose response curve equation by using XL Fit software. The curve equation is Y=100/(1+10^(log C−log IC50)). C is the compound concentration.

USP1/UAF1, sequence (O94782 whole entry): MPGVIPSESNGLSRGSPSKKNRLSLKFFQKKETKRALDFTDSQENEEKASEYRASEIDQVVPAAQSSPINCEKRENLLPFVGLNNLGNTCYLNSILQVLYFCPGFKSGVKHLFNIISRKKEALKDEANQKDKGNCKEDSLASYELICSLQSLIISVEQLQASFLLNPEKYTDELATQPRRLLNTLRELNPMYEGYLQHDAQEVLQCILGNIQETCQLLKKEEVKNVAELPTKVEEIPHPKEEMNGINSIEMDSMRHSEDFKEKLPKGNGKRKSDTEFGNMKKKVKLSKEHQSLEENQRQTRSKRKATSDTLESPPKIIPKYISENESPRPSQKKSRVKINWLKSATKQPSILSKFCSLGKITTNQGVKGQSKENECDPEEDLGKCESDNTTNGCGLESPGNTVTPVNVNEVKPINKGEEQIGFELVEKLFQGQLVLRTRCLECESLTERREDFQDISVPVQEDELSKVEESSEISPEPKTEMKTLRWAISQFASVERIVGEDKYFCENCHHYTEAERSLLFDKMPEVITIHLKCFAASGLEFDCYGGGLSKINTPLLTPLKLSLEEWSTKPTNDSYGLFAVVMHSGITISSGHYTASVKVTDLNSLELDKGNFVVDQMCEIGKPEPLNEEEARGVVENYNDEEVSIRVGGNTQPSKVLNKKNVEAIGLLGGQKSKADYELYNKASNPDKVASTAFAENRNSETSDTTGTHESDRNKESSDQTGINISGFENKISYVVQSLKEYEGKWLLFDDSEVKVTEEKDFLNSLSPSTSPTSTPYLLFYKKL
USP1/UAF1, sequence (Q8TAF3 whole entry partner): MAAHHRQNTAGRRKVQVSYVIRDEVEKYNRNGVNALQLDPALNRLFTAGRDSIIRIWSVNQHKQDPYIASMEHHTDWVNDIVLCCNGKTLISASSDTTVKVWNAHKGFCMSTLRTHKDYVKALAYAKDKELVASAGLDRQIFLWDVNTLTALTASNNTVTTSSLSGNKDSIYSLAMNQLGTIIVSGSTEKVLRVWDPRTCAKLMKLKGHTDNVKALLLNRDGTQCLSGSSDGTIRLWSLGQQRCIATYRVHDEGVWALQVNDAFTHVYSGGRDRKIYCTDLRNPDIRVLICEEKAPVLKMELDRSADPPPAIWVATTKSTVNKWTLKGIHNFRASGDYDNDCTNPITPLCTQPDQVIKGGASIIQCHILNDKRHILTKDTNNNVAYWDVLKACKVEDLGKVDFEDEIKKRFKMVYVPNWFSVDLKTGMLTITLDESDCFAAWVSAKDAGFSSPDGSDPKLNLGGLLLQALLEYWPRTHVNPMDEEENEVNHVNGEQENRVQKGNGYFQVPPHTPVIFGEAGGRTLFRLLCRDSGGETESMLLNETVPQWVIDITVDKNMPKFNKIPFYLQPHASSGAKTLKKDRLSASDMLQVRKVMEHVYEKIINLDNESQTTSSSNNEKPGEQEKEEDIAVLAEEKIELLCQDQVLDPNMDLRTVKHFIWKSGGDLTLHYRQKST

| IC50 [nM] | Structure (SMILES) |
| --- | --- |
| 11.2 | COc1ncnc(C2CC2)c1-c1nc2c(Cc3ccc(-c4nc(C(F)(F)F)cn4C)cc3)nccn2n1 [Example 18, 2-(4-cyclopropyl-6-methoxypyrimidin-5-yl)-8-(4-(1-methyl-4-(trifluoromethyl)-1H-imidazol-2-yl)benzyl)-[1,2,4]triazolo[1,5-a]pyrazine] |
| 16.1 | COc1ncnc(C2CC2)c1-c1nc2ccnc(Cc3ccc(-c4nc(C(F)(F)F)cn4C)cc3)n2n1 [Example 21, 2-(4-cyclopropyl-6-methoxypyrimidin-5-yl)-5-(4-(1-methyl-4-(trifluoromethyl)-1H-imidazol-2-yl)benzyl)-[1,2,4]triazolo[1,5-c]pyrimidine] |
| 11.8 | COc1ncnc(C2CC2)c1-c1nc2c(Cc3ccc(-c4nc(C(F)(F)F)cn4C4CC4)cc3)cccn2n1 [Example 24, 8-(4-(1-cyclopropyl-4-(trifluoromethyl)-1H-imidazol-2-yl)benzyl)-2-(4-cyclopropyl-6-methoxypyrimidin-5-yl)-[1,2,4]triazolo[1,5-a]pyridine] |
| 11.6 | COc1ncnc(C2CC2)c1-c1nc2c(Cc3ccc(-c4nc(C(F)(F)F)cn4C)c(F)c3)cccn2n1 [Example 25, 2-(4-cyclopropyl-6-methoxypyrimidin-5-yl)-8-(3-fluoro-4-(1-methyl-4-(trifluoromethyl)-1H-imidazol-2-yl)benzyl)-[1,2,4]triazolo[1,5-a]pyridine] |
| 39.5 | CCn1cc(C(F)(F)F)nc1-c1c(F)cc(Cc2cccn3nc(-c4c(OC)ncnc4C4CC4)nc23)cc1OC [Example 26, 2-(4-cyclopropyl-6-methoxypyrimidin-5-yl)-8-(4-(1-ethyl-4-(trifluoromethyl)-1H-imidazol-2-yl)-3-fluoro-5-methoxybenzyl)-[1,2,4]triazolo[1,5-a]pyridine] |
| 34.6 | COc1ncnc(C2CC2)c1-c1nc2c(Cc3ccc(-c4nc(C(F)(F)F)cn4C4CC4)cc3)nccn2n1 [Example 29, 8-(4-(1-cyclopropyl-4-(trifluoromethyl)-1H-imidazol-2-yl)benzyl)-2-(4-cyclopropyl-6-methoxypyrimidin-5-yl)-[1,2,4]triazolo[1,5-a]pyrazine] |
| 41.4 | COc1ncnc(C2CC2)c1-c1nc2c(Cc3ccc(-c4nc(C(F)(F)F)cn4C)c(F)c3)nccn2n1 [Example 30, 2-(4-cyclopropyl-6-methoxypyrimidin-5-yl)-8-(3-fluoro-4-(1-methyl-4-(trifluoromethyl)-1H-imidazol-2-yl)benzyl)-[1,2,4]triazolo[1,5-a]pyrazine] |
| 57.5 | CCn1cc(C(F)(F)F)nc1-c1c(F)cc(Cc2nccn3nc(-c4c(OC)ncnc4C4CC4)nc23)cc1F [Example 31, 2-(4-cyclopropyl-6-methoxypyrimidin-5-yl)-8-(4-(1-ethyl-4-(trifluoromethyl)-1H-imidazol-2-yl)-3,5-difluorobenzyl)-[1,2,4]triazolo[1,5-a]pyrazine] |
| 111 | COc1ncnc(C2CC2)c1-c1nc2c(Cc3ccc(-c4nc(C(F)(F)F)cn4C4CC4)cc3)cncn2n1 [Example 32, 8-(4-(1-cyclopropyl-4-(trifluoromethyl)-1H-imidazol-2-yl)benzyl)-2-(4-cyclopropyl-6-methoxypyrimidin-5-yl)-[1,2,4]triazolo[1,5-c]pyrimidine] |
| 94.5 | COc1ncnc(C2CC2)c1-c1nc2c(Cc3ccc(-c4nc(C(F)(F)F)cn4C)c(F)c3)cncn2n1 [Example 33, 2-(4-cyclopropyl-6-methoxypyrimidin-5-yl)-8-(3-fluoro-4-(1-methyl-4-(trifluoromethyl)-1H-imidazol-2-yl)benzyl)-[1,2,4]triazolo[1,5-c]pyrimidine] |
| 242 | CCn1cc(C(F)(F)F)nc1-c1c(F)cc(Cc2cncn3nc(-c4c(OC)ncnc4C4CC4)nc23)cc1F [Example 34, 2-(4-cyclopropyl-6-methoxypyrimidin-5-yl)-8-(4-(1-ethyl-4-(trifluoromethyl)-1H-imidazol-2-yl)-3,5-difluorobenzyl)-[1,2,4]triazolo[1,5-c]pyrimidine] |
| 9.53 | COc1ncnc(C2CC2)c1-c1nc2cccc(Cc3ccc(-c4nc(C(F)(F)F)cn4C4CC4)cc3)n2n1 [Example 37, 5-(4-(1-cyclopropyl-4-(trifluoromethyl)-1H-imidazol-2-yl)benzyl)-2-(4-cyclopropyl-6-methoxypyrimidin-5-yl)-[1,2,4]triazolo[1,5-a]pyridine] |
| 5.44 | COc1ncnc(C2CC2)c1-c1nc2cccc(Cc3ccc(-c4nc(C(F)(F)F)cn4C)c(F)c3)n2n1 [Example 38, 2-(4-cyclopropyl-6-methoxypyrimidin-5-yl)-5-(3-fluoro-4-(1-methyl-4-(trifluoromethyl)-1H-imidazol-2-yl)benzyl)-[1,2,4]triazolo[1,5-a]pyridine] |
| 18.8 | CCn1cc(C(F)(F)F)nc1-c1c(F)cc(Cc2cccc3nc(-c4c(OC)ncnc4C4CC4)nn23)cc1OC [Example 39, 2-(4-cyclopropyl-6-methoxypyrimidin-5-yl)-5-(4-(1-ethyl-4-(trifluoromethyl)-1H-imidazol-2-yl)-3-fluoro-5-methoxybenzyl)-[1,2,4]triazolo[1,5-a]pyridine] |
| 732 | CCn1cc(C(F)(F)F)nc1-c1c(F)cc(Cc2nccc3nc(-c4c(OC)ncnc4C4CC4)nn23)cc1F [Example 42, 2-(4-cyclopropyl-6-methoxypyrimidin-5-yl)-5-(4-(1-ethyl-4-(trifluoromethyl)-1H-imidazol-2-yl)-3,5-difluorobenzyl)-[1,2,4]triazolo[1,5-c]pyrimidine] |
| 38.9 | COc1ncnc(C2CC2)c1-c1nc2cncc(Cc3ccc(-c4nc(C(F)(F)F)cn4C4CC4)cc3)n2n1 [Example 43, 5-(4-(1-cyclopropyl-4-(trifluoromethyl)-1H-imidazol-2-yl)benzyl)-2-(4-cyclopropyl-6-methoxypyrimidin-5-yl)-[1,2,4]triazolo[1,5-a]pyrazine] |
| 78.3 | COc1ncnc(C2CC2)c1-c1nc2cncc(Cc3ccc(-c4nc(C(F)(F)F)cn4C)c(F)c3)n2n1 [Example 44, 2-(4-cyclopropyl-6-methoxypyrimidin-5-yl)-5-(3-fluoro-4-(1-methyl-4-(trifluoromethyl)-1H-imidazol-2-yl)benzyl)-[1,2,4]triazolo[1,5-a]pyrazine] |
| 99.7 | CCn1cc(C(F)(F)F)nc1-c1c(F)cc(Cc2cncc3nc(-c4c(OC)ncnc4C4CC4)nn23)cc1F [Example 45, 2-(4-cyclopropyl-6-methoxypyrimidin-5-yl)-5-(4-(1-ethyl-4-(trifluoromethyl)-1H-imidazol-2-yl)-3,5-difluorobenzyl)-[1,2,4]triazolo[1,5-a]pyrazine] |
